Data reported in patent US4745109A, “Suicide inhibitors of aromatase” (Washington Research Foundation, priority 1984, dated 1988).
“Also recorded” adds a separate entry of the source. Where two headings read alike, the source gives them in different places.

Experiments:
aromatase [1] = target: T1, aromatase (Homo sapiens, UniProt P11511); test: NADPH and Oxygen Dependency Experiments: aromatase inactivation in placental microsomes, tritium release assay; format: biochemical; settings: 500 nM inhibitor, preincubation 3 minutes at 30° C., not corrected for background loss (approximately 5%)
T1 construct: Placental microsomes were prepared as previously described; from tissue; host or cells: human placenta, microsomes
T1 sequence (P11511 1-503): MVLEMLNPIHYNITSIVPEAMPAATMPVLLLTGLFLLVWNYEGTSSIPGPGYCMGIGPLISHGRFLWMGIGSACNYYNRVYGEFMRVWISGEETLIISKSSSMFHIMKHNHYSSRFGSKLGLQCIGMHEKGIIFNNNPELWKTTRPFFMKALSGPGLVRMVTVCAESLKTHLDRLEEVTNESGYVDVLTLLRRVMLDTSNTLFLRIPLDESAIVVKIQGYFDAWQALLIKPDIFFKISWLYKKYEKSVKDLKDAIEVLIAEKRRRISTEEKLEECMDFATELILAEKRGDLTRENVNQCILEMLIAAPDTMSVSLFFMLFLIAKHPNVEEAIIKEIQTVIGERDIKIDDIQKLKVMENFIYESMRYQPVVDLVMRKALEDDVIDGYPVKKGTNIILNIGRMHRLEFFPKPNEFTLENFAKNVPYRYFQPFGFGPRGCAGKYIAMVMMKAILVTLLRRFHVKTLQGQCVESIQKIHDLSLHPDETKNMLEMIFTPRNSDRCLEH
Experimental: (§1) The activity of 17β-hydroxy-10β-mercaptoestr-4-en-3-one and 19-mercaptoandrost-4-en-3,17-dione were tested as suicide inhibitors of aromatase according to the method of Coury et al. (J. Biol. Chem., 256, 1076 (1981)) in human placental microsomes. The activity was measured by the well-established tritium release assay according to Thompson et al. (J. Biol. Chem., 249, 5364 (1974)) using 1β,2β-[^3 H]androstenedione (40-60 Ci/mole) obtained from New England Nuclear in Boston, MA.
(§2) Human placenta were obtained from the University Hospital, University of Washington, Seattle, WA, and were used within a few hours of delivery. Placental microsomes were prepared as previously described. (Coury et al). Protein concentration was determined by the method of Lowry (J. Biol. Chem., 193, 265 (1951)).
(§3) All incubations were carried out in 10 mM phosphate buffer, pH 7.5, 100 mM KCl, 1/mM EDTA. Incubations contained 1.0 mg/ml microsomal protein, 32 mg/ml propylene glycol, 0.36 mM NADPH, 11.5 mM glucose-6-phosphate dehydrogenase and 10 mM MgCl2 and were allowed to warm to 30° C. for 5 minutes. Inhibitors were added as 10 μl/ml from 10 μM stock solutions in ethanol to give final inhibitor concentrations of 100 nM. At various times, from 0 to 70 minutes, 400 μl aliquots in duplicate were removed and were added to […] of a 10 mM phosphate buffer, pH 7.5, 100 mM KCl, 1 mM EDTA containing 40 μM 1β,2β,[^3 H]androstenedione (20 Ci/mol). Tritium release incubations were conducted at 37° C. for 10 minutes and stopped by addition of 5 ml 20% acetone/chloroform. Following vortexing at high speeds for 30 seconds and centrifugation, 100 μl of the water layer was removed and mixed with 5 ml LSC cocktail and counted. Percent activity remaining is the number of DPMs after a time period divided by the number of DPMs at time zero multiplied by 100.
Incubations containing 1.0 mg/ml microsomal protein, 32 mg/ml propylene glycol, with or without 0.36 mM NADPH, were warmed to 30° C. for 5 minutes. Inhibitors were added in ethanol (10 μl/ml of incubate) to give inhibitor concentrations of 500 nM. Controls contained only ethanol and NADPH. After incubating 0 and 3 minutes at 30° C., 400 μl aliquots, in duplicate, from the NADPH containing incubations were added to the tritium release assay. For incubations lacking NADPH, 400 μl aliquots were removed and added to 100 μl phosphate buffer containing 1.4 mM NADPH and […] 1β,2β[^3 H]androstenedione (20 Ci/mol). Tritium release assays were conducted as described above.
Incubations containing 1.0 mg/ml microsomal protein, 32 mg/ml propylene glycol, and 500 nM inhibitor or ethanol (10 μl/ml) were prepared. Incubations run under anaerobic conditions were alternately evacuated and purged with deoxygenated nitrogen ten times at 0° C. Both anaerobic and aerobic incubations were allowed to warm to 30° C. for 5 minutes, and 10 μl/ml of a 1.4 mM NADPH solution was added via a syringe. After incubating 0 and 3 minutes at 30° C., triplicate aliquots of 400 μl were removed and added to tritium release assays.

aromatase [2] = target: T1, aromatase; test: Androstenedione and Cysteine Protection Experiments (t1/2 of aromatase inactivation), tritium release assay; format: biochemical; settings: 1 at 500 nM, 2 at 167 nM, 30° C., NADPH, not corrected for background loss; for t1/2 (mean ± SD), time to bring about a 50% inhibition of aromatase: inhibitor alone; for t1/2 (mean ± SD), inhibitor and androstenedione: with androstenedione 5.0 μM; for t1/2 (mean ± SD), inhibitor and cysteine: with cysteine 1.0 mM
Experimental: as §1, §2, §3
Incubations containing 1.0 mg/ml microsomal protein, 32 mg/ml propylene glycol, and 0.36 mM NADPH were warmed to 30° C. for 5 minutes. Addition of ethanol solutions (10 μl/ml) of inhibitors with and without androstenedione gave final concentrations of 500 nM 17β-hydroxy-10β-mercaptoestr-4-en-3-one, 167 nM 19-mercaptoandrost-4-en-3,17-dione, with and without 5.0 μM androstenedione. After 0, 1, 2, and 3 minutes at 30° C., 400 μl aliquots, in duplicate, were removed and added to the tritium release assay.
Incubations containing 1.0 mg/ml microsomal protein, 32 mg/ml propylene glycol, and 0.36 mM NADPH, with or without 1.0 mM cysteine, were warmed to 30° C. for 5 minutes. Addition of inhibitor solution (10 μl/ml) gave final concentrations of 500 nM 17β-hydroxy-10β-mercapto-4-en-3-one and 167 nM 19-mercaptoandrost-4-en-3,17-dione. After incubating 0, 1, 2, and 3 minutes, 400 μl aliquots, in duplicate, were removed and added to tritium release assays.

aromatase [3] = target: T1, aromatase; test: Irreversibility Experiments (diffusion dialysis), tritium release assay; format: biochemical; settings: 250 nM inhibitor, preincubation 5 minutes at 30° C.
Experimental: as §1, §2
Incubations containing 1.8 mg/ml microsomal protein, 32 mg/ml propylene glycol, 0.7 mM NADPH, and 250 nM of inhibitor were kept at 4° C. For zero time points, 400 μl aliquots, in triplicate, were removed and added to tritium release assays. Remaining microsomes were incubated at 30° C. for 5 minutes, cooled in ice to 4° C.; and 400 μl aliquots, in triplicate, were added to tritium release assays to determine remaining activity. Remaining microsomes were added to dialysis tubing (Spectrapore® membrane tubing, 3500 dalton cut off) and dialyzed against a 10 mM phosphate buffer, pH 7.5, 100 mM KCl, 1 mM EDTA, and 5% propylene glycol at 0° C. for 20 hours. To serve as controls, incubations containing the same concentrations of inhibitor, but no cofactors, were carried through the same procedures.
After dialysis, 400 μl aliquots, in duplicate, were added to 100 μl phosphate buffer containing 2.9 mM NADPH and 40 μM 1β,2β[^3 H]androstenedione (20 Ci/mol) and incubated at 37° C. for 10 minutes. The usual workup for the tritium release assay was followed. Protein content for all incubations fell approximately 25% after dialysis. Enzyme activity fell approximately 60% after dialysis.

aromatase [4] = target: T1, aromatase; test: Concentration-Dependent Inactivation (rate constant of inactivation); format: biochemical; settings: relative to 19-mercaptoandrost-4-en-3,17-dione
Experimental: as §1, §2
Incubations containing 1.0 mg/ml microsomal protein, 32 mg/ml propylene glycol, and 0.36 mM NADPH were warmed to 30° C. for 5 minutes. Various concentrations of inhibitor were added to the incubations in ethanol (10 μl/ml of incubate). Ethanol (10 μl/ml was) added as a control. After incubating 0, 1, 2, and 3 minutes at 30° C., 400 μl aliquots, in duplicate, were removed and were added to the tritium release assay described above.

[5] = in vivo; cited from earlier work
[6] = N2 atmosphere (anaerobic), read-out: % Activity Remaining (mean ± SD), + N2 atmosphere
[7] = with NADPH, aerobic, read-out: % Activity Remaining (mean ± SD)
[8] = without NADPH, read-out: % Activity Remaining (mean ± SD), - NADPH
[9] = after dialysis 20 hours at 0° C., read-out: Activity Remaining (mean ± SD), After Dialysis
[10] = 5 min, before dialysis, read-out: Activity Remaining (mean ± SD), Before Dialysis

C[C@]12CC[C@H]3[C@@H](CCC4=CC(=O)CC[C@@]43S)[C@@H]1CC[C@@H]2O [compound 1, 17β-hydroxy-10β-mercaptoestr-4-en-3-one]
remaining activity at 0.5 µM (aromatase [1]; [6]): 95 ± 2% | remaining activity at 0.5 µM (aromatase [1]; [7]): 67 ± 2% | remaining activity at 0.5 µM (aromatase [1]; [8]): 96 ± 3% | t1/2 (mean ± SD), time to bring about a 50% inhibition of aromatase (aromatase [2]): 4.68 ± 0.833 min | t1/2 (mean ± SD), inhibitor and androstenedione (aromatase [2]): 12.6 ± 0.833 min | t1/2 (mean ± SD), inhibitor and cysteine (aromatase [2]): 5.17 ± 0.967 min | remaining activity at 0.25 µM (aromatase [3]; [9]): 52 ± 3% | remaining activity at 0.25 µM (aromatase [3]; [10]): 49 ± 6% | rate constant ratio, 17β-hydroxy-10β-mercaptoestr-4-en-3-one vs 19-mercaptoandrost-4-en-3,17-dione (aromatase [4]): about three

CCC1(c2ccc(N)cc2)CCC(=O)NC1=O (stereo not drawn) [aminoglutethimide]
side effects [5]: lethargy or tumor lysis syndrome; also recorded: sedative which has the side effect of lethargy

C[C@]12CC[C@H]3[C@@H](CCC4=CC(=O)CC[C@@]43CS)[C@@H]1CCC2=O [compound 2, 19-mercaptoandrost-4-en-3,17-dione]
remaining activity at 0.5 µM (aromatase [1]; [6]): 95 ± 5% | remaining activity at 0.5 µM (aromatase [1]; [7]): 77 ± 4% | remaining activity at 0.5 µM (aromatase [1]; [8]): 95 ± 5% | t1/2 (mean ± SD), time to bring about a 50% inhibition of aromatase (aromatase [2]): 7.7 ± 1.25 min | t1/2 (mean ± SD), inhibitor and androstenedione (aromatase [2]): 12.2 ± 0.35 min | t1/2 (mean ± SD), inhibitor and cysteine (aromatase [2]): 6.87 ± 0.333 min | remaining activity at 0.25 µM (aromatase [3]; [9]): 58 ± 2% | remaining activity at 0.25 µM (aromatase [3]; [10]): 50 ± 5%
